± gives the expanded uncertainty stated by the source.
Tests used:
[1] = Crystal; DTA
[2] = Molar enthalpy of transition or fusion; details: Crystal; DSC

SMILES	Normal melting temperature [1] [°C]	Molar enthalpy of transition or fusion [2] [kcal/mol]
C1COCCOCCOCCOCCOCCO1.O.O.O.O.O.O.O.O.O.O.O.O [1,4,7,10,13,16-hexaoxacyclooctadecane dodecahydrate]	9.90 ± 0.53	4.66 ± 0.932
C1COCCOCCOCCOCCOCCO1.O.O.O.O.O.O.O.O [1,4,7,10,13,16-hexaoxacyclooctadecane octahydrate]	17.10 ± 0.53	2.8 ± 0.574
C1COCCOCCOCCOCCOCCO1 [1,4,7,10,13,16-hexaoxacyclooctadecane]	39.10 ± 0.53	8.48 ± 0.741

Source: the NIST ThermoML archive (doi:10.1021/je301087w)
